Results published in ChEMBL document CHEMBL3632524, “3-(2,6-Dichloro-benzyloxy)-11-oxo-olean-12-ene-29-oic acid, a semisynthetic derivative of glycyrrhetic acid: synthesis, antiproliferative, apoptotic and anti-angiogenesis activity” (Medchemcomm, 2015).
Calls of active or inactive are those of the source. The calls are words filed in the database; no cut-off is given here.

Legend:
[1] = Antiproliferative activity against human MIAPaCa2 cells assessed as cell viability after 48 hrs by MTT assay; format: functional, cell-based; conditions: MIA PaCa-2, 48 h
PC-3 [2] = assay: Antiproliferative activity against human PC3 cells assessed as cell viability after 48 hrs by MTT assay; format: functional, cell-based; conditions: PC-3, 48 h
HepG2 = assay: Antiproliferative activity against human HepG2 cells assessed as cell viability after 48 hrs by MTT assay; format: functional, cell-based; conditions: HepG2, 48 h
HL-60 = assay: Cytotoxicity against human HL60 cells; format: functional, cell-based
PC-3 [3] = assay: Antiproliferative activity against human PC3 cells assessed as cell viability after 6 hrs by MTT assay; format: functional, cell-based; conditions: PC-3, 6 h
PC-3 [4] = assay: Antiproliferative activity against human PC3 cells assessed as cell viability after 18 hrs by MTT assay; format: functional, cell-based; conditions: PC-3, 18 h
PC-3 [5] = assay: Induction of apoptosis in human PC3 cells assessed as membrane blebbing after 24 hrs by fluorescence microscopic analysis; format: functional, cell-based
PC-3 [6] = assay: Disruption of mitochondrial membrane potential in human PC3 cells at 10 uM after 24 hrs by rhodamine-123 based fluorescence assay (reference value: 5%); format: functional
PC-3 [7] = assay: Cell cycle arrest in human PC3 cells assessed as accumulation at G2 phase at 5 uM after 24 hrs by propidium iodide based flow cytometry (reference value: 20%); format: functional
HUVEC [8] = assay: Antiangiogenic activity in HUVEC assessed as wound closure level at 20 uM after 24 hrs by wound healing assay (reference value: 100%); format: functional, Homo sapiens
PC-3 [9] = assay: Cell cycle arrest in human PC3 cells assessed as accumulation at S phase at 10 uM after 24 hrs by propidium iodide based flow cytometry (reference value: 30%); format: functional
PC-3 [10] = assay: Cell cycle arrest in human PC3 cells assessed as accumulation at sub G1 phase at 10 uM after 24 hrs by propidium iodide based flow cytometry (reference value: 3%); format: functional
HUVEC [11] = assay: Antiangiogenic activity in HUVEC assessed as VEGF-induced migration after 24 hrs by wound healing assay; format: functional, cell-based; conditions: Homo sapiens
PC-3 [12] = assay: Cell cycle arrest in human PC3 cells assessed as accumulation at G1 phase at 5 uM after 24 hrs by propidium iodide based flow cytometry (reference value: 50%); format: functional
PC-3 [13] = assay: Disruption of mitochondrial membrane potential in human PC3 cells at 5 uM after 24 hrs by rhodamine-123 based fluorescence assay (reference value: 5%); format: functional
PC-3 [14] = assay: Antiproliferative activity against human PC3 cells assessed as cell viability after 24 hrs by MTT assay; format: functional, cell-based; conditions: PC-3, 24 h
PC-3 [15] = assay: Cell cycle arrest in human PC3 cells assessed as accumulation at sub G1 phase at 5 uM after 24 hrs by propidium iodide based flow cytometry (reference value: 3%); format: functional
PC-3 [16] = assay: Down regulation of Bcl-2 in human PC3 cells at 10 to 20 uM after 24 hrs by western blot analysis; format: functional, cell-based
PC-3 [17] = assay: Cell cycle arrest in human PC3 cells assessed as accumulation at sub G1 phase at 20 uM after 24 hrs by propidium iodide based flow cytometry (reference value: 3%); format: functional
PC-3 [18] = assay: Induction of apoptosis in human PC3 cells assessed as decrease in Bcl2 to Bax ratio at 5 to 20 uM after 24 hrs by western blot analysis (reference value: 5); format: functional
PC-3 [19] = assay: Down regulation of procaspase-8 expression in human PC3 cells at 5 to 20 uM after 24 hrs by western blot analysis; format: functional, cell-based
PC-3 [20] = assay: Cell cycle arrest in human PC3 cells assessed as accumulation at G1 phase at 10 uM after 24 hrs by propidium iodide based flow cytometry (reference value: 50%); format: functional
PC-3 [21] = assay: Antiangiogenic activity in human PC3 cells assessed as VEGF-induced migration at 5 to 30 uM after 24 hrs by wound healing assay; format: functional, cell-based
PC-3 [22] = assay: Cell cycle arrest in human PC3 cells assessed as accumulation at G2 phase at 10 uM after 24 hrs by propidium iodide based flow cytometry (reference value: 20%); format: functional
PC-3 [23] = assay: Induction of apoptosis in human PC3 cells assessed as translocation of Bax from cytosol to mitochondria at 5 to 20 uM after 24 hrs by western blot analysis; format: functional, cell-based
PC-3 [24] = assay: Induction of apoptosis in human PC3 cells assessed as apoptotic bodies after 24 hrs by fluorescence microscopic analysis; format: functional, cell-based
[25] = Up regulation of PARP-1 expression in human PC3 cells at 5 to 20 uM after 24 hrs by western blot analysis; format: functional, cell-based; conditions: PC-3
PC-3 [26] = assay: Cell cycle arrest in human PC3 cells assessed as accumulation at S phase after 24 hrs by propidium iodide based flow cytometry; format: functional
PC-3 [27] = assay: Cell cycle arrest in human PC3 cells assessed as accumulation at sub G1 phase after 24 hrs by propidium iodide based flow cytometry; format: functional
PC-3 [28] = assay: Cell cycle arrest in human PC3 cells assessed as accumulation at S phase at 5 uM after 24 hrs by propidium iodide based flow cytometry (reference value: 30%); format: functional
PC-3 [29] = assay: Induction of apoptosis in human PC3 cells assessed as nuclear condensation after 24 hrs by fluorescence microscopic analysis; format: functional, cell-based
MIA PaCa-2 = assay: Antiproliferative activity against human MIAPaCa2 cells assessed as cell viability by MTT assay; format: functional, cell-based; conditions: TDE = time-dependent effect
PC-3 [30] = assay: Disruption of mitochondrial membrane potential in human PC3 cells at 20 uM after 24 hrs by rhodamine-123 based fluorescence assay (reference value: 5%); format: functional
PC-3 [31] = assay: Cell cycle arrest in human PC3 cells assessed as accumulation at G2 phase at 20 uM after 24 hrs by propidium iodide based flow cytometry (reference value: 20%); format: functional
PC-3 [32] = assay: Antiproliferative activity against human PC3 cells assessed as cell viability after 12 hrs by MTT assay; format: functional, cell-based; conditions: PC-3, 12 h
PC-3 [33] = assay: Cell cycle arrest in human PC3 cells assessed as accumulation at S phase at 20 uM after 24 hrs by propidium iodide based flow cytometry (reference value: 30%); format: functional
PC-3 [34] = assay: Cell cycle arrest in human PC3 cells assessed as accumulation at G1 phase at 20 uM after 24 hrs by propidium iodide based flow cytometry (reference value: 50%); format: functional

CC1(C)[C@@H](OCc2cccc([N+](=O)[O-])c2)CC[C@]2(C)[C@H]3C(=O)C=C4[C@@H]5C[C@@](C)(C(=O)O)CC[C@]5(C)CC[C@@]4(C)[C@]3(C)CC[C@@H]12
IC50 [1]: > 20 µM | IC50 (PC-3 [2]): > 20 µM | IC50 (HepG2): > 20 µM

CC1(C)[C@@H](OCc2ccc(Br)cc2)CC[C@]2(C)[C@H]3C(=O)C=C4[C@@H]5C[C@@](C)(C(=O)O)CC[C@]5(C)CC[C@@]4(C)[C@]3(C)CC[C@@H]12
IC50 [1]: > 20 µM | IC50 (PC-3 [2]): > 20 µM | IC50 (HepG2): > 20 µM

CC1(C)[C@@H](O)CC[C@]2(C)[C@H]3C(=O)C=C4[C@@H]5C[C@@](C)(C(=O)O)CC[C@]5(C)CC[C@@]4(C)[C@]3(C)CC[C@@H]12 [ENOXOLONE]
IC50 [1]: > 20 µM | IC50 (HL-60): 63.2 µM | IC50 (PC-3 [2]): > 20 µM | IC50 (HepG2): > 20 µM

CC(C)=CCC/C(C)=C\CO[C@H]1CC[C@]2(C)[C@H]3C(=O)C=C4[C@@H]5C[C@@](C)(C(=O)O)CC[C@]5(C)CC[C@@]4(C)[C@]3(C)CC[C@H]2C1(C)C
IC50 [1]: > 20 µM | IC50 (PC-3 [2]): > 20 µM | IC50 (HepG2): > 20 µM

COc1ccc(CO[C@H]2CC[C@]3(C)[C@H]4C(=O)C=C5[C@@H]6C[C@@](C)(C(=O)O)CC[C@]6(C)CC[C@@]5(C)[C@]4(C)CC[C@H]3C2(C)C)cc1OC
IC50 [1]: > 20 µM | IC50 (PC-3 [2]): > 20 µM | IC50 (HepG2): > 20 µM

CC1(C)[C@@H](OCc2ccc3c(c2)OCO3)CC[C@]2(C)[C@H]3C(=O)C=C4[C@@H]5C[C@@](C)(C(=O)O)CC[C@]5(C)CC[C@@]4(C)[C@]3(C)CC[C@@H]12
IC50 [1]: > 20 µM | IC50 (PC-3 [2]): > 20 µM | IC50 (HepG2): > 20 µM

CC1(C)[C@@H](OCc2ccccc2I)CC[C@]2(C)[C@H]3C(=O)C=C4[C@@H]5C[C@@](C)(C(=O)O)CC[C@]5(C)CC[C@@]4(C)[C@]3(C)CC[C@@H]12
IC50 [1]: > 20 µM | IC50 (PC-3 [2]): > 20 µM | IC50 (HepG2): > 20 µM

CC1(C)[C@@H](OCc2ccc(C(F)(F)F)cc2C(F)(F)F)CC[C@]2(C)[C@H]3C(=O)C=C4[C@@H]5C[C@@](C)(C(=O)O)CC[C@]5(C)CC[C@@]4(C)[C@]3(C)CC[C@@H]12
IC50 [1]: > 20 µM | IC50 (PC-3 [2]): > 20 µM | IC50 (HepG2): > 20 µM

CC1(C)[C@@H](OCc2c(F)cccc2Cl)CC[C@]2(C)[C@H]3C(=O)C=C4[C@@H]5C[C@@](C)(C(=O)O)CC[C@]5(C)CC[C@@]4(C)[C@]3(C)CC[C@@H]12
IC50 [1]: 11 µM | IC50 (PC-3 [2]): 10 µM | IC50 (HepG2): > 100 µM

CC1(C)[C@@H](OCc2c(Cl)cccc2Cl)CC[C@]2(C)[C@H]3C(=O)C=C4[C@@H]5C[C@@](C)(C(=O)O)CC[C@]5(C)CC[C@@]4(C)[C@]3(C)CC[C@@H]12
IC50 (PC-3 [3]): 400 µM | IC50 (PC-3 [4]): 100 µM | Activity (PC-3 [5]): Dose-dependent effect | Activity (PC-3 [6]): 15% | IC50 [1]: 7 µM | Activity (PC-3 [7]): 1% | Activity (HUVEC [8]): 20% | Activity (PC-3 [9]): 42% | Activity (PC-3 [10]): 12% | Activity (HUVEC [11]): Active | Activity (PC-3 [12]): 59% | Activity (PC-3 [13]): 12% | IC50 (PC-3 [14]): 15 µM | Activity (PC-3 [15]): 8% | Activity (PC-3 [16]): Active | Activity (PC-3 [17]): 37% | Ratio (PC-3 [18]): 0.5 | Activity (PC-3 [19]): Active | Activity (PC-3 [20]): 51% | Activity (PC-3 [21]): Dose-dependent effect | Activity (PC-3 [22]): 7% | Activity (PC-3 [23]): Active | Activity (PC-3 [24]): Dose-dependent effect | IC50 (PC-3 [2]): 6 µM | Activity [25]: Active | Activity (PC-3 [26]): Dose-dependent effect | Activity (PC-3 [27]): Dose-dependent effect | Activity (PC-3 [28]): 40% | IC50 (HepG2): 19 µM | Activity (PC-3 [29]): Dose-dependent effect | Activity (MIA PaCa-2): tde | Activity (PC-3 [30]): 38% | Activity (PC-3 [31]): 4% | IC50 (PC-3 [32]): 370 µM | Activity (PC-3 [33]): 53% | Activity (PC-3 [34]): 44%
